Results reported in patent US20220267352A1, “RAPAMYCIN ANALOGS AND USES THEREOF” (Anakuria Therapeutics, Inc., priority 2021, published 2022).

Experiments:
Format in all cases: cell-based
[1] = tested on: p-p70 S6 Kinase (Thr389) in MCF-7 cells; assay: AlphaLISA Ultra pS6K1 assay; conditions: Homo sapiens, 1.5 h; MCF7 cells, 90 min
How it was run: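 Phospho-S6K1 (Thr389) quantified by AlphaLISA Ultra read-out (2 h acceptor, then 2 h donor beads) in lysates of MCF-7 cells. Cells were plated 20–24 h before, refed 2 h, exposed to compounds for 90 min at 0.5% final DMSO, and lysates stored at −80 °C.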

[2] = tested on: p-Akt 1/2/3 (Ser473) in MCF-7 cells; assay: AlphaLISA Ultra pAKT assay; conditions: Homo sapiens, 1.5 h; MCF7 cells, 90 min
How it was run: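 MCF-7 cells (16,000˜20,000 per well in 36 μL medium) were seeded in Corning 3701 plates for 20˜24 hour, refreshed with new medium for 90 minutes, then given 12 μL of 4× compound (0.5% final DMSO). Cells were lysed with 2× lysis buffer, and lysate was analyzed by AlphaLISA Ultra pAKT using acceptor and donor beads, read on an EnSpire reader.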

mTORC1 over mTORC2 = mTORC1 over mTORC2 selectivity by comparing pS6K1 and pAKT IC50; conditions: by comparing pS6K1 and pAKT IC50, 90 min
Protocol: Assay Protocol: • 1. Seed MCF-7 cells in Corning 3701 plate and incubate for 20˜24 hour. 12,000˜16,000 cells will be seeded in 36 μL medium per well. • 2. Change the culture medium with fresh medium and incubate for another 2 hours. • 3. Add 12 μL (4×) compounds into the cell plate by HAMILTON. Final DMSO concentration is 0.5%. Incubate for 90 minutes. • 4. Aspirate 38 μL by HAMILTON, 10 μL rest per well. • 5. Add 10 μL 2× lysis buffer using HAMILTON; total volume in wells is 20 μL. Allow cells to shake for 30 min. Cover plate by plastic foil and store plate at −80° C. up to analysis. • 6. Thaw cell lysate at RT and transfer 10 μL lysate to assay plate (Optiplate-384). • 7. Add 5 μL acceptor beads into assay plate and incubation for 2 hours • 8. Add 5 μL donor beads and incubation for 2 hours • 9. Count the plate by EnSpire Multimode Plate Reader […]
Compounds that are not selective by comparing pS6K1 and pAKT IC50 by kinase assays are indicated by “NO” in the “mTORC1 selective @ 90 min” column of Table 4. […] Compounds that are not selective at the 24 hrs mark are indicated by “NO” in the “mTORC1 selective @ 24 hrs” column of Table 4. “N/A” stands for “not assayed” and “N/C” stands for “not calculated”.

Compound | IC50 [1] [nM] | IC50 [2] [nM] | mTORC1 selective @ 90 min (mTORC1 over mTORC2)
CO[C@@H]1/C(C)=C/[C@@H](C)C(=O)C[C@@H]([C@H](C)C[C@@H]2CC[C@@H](OP(C)(C)=O)[C@H](OC)C2)OC(=O)[C@@H]2CCCCN2C(=O)C(=O)[C@]2(O)O[C@@H](CC[C@H]2C)C[C@H](OCC2COCCO2)/C(C)=C/C=C/C=C/[C@@H](C)C[C@@H](C)C(=O)[C@@H]1OC (stereo partly drawn) [I-25, (27E,29E,31E,32E,35R,36S,37R,38R,40S,42S,44S,45S,47R,48R,57R)-45-[(1R)-2-[(1S,3R,4R)-4-dimethylphosphoryloxy-3-methoxy-cyclohexyl]-1-methyl-ethyl]-44-(1,4-dioxan-2-ylmethoxy)-57-hydroxy-47,48-dimethoxy-35,36,37,38,49,50-hexamethyl-68,69-dioxa-58-azatricyclohexatriaconta-27,29,31(49),32(50)-tetraene-51,52,53,54,55-pentone] | 10 to 100 | ≥ 1000 | Yes
CO[C@@H]1C[C@H](C[C@@H](C)[C@@H]2CC(=O)[C@H](C)/C=C(\C)[C@@H](O)[C@@H](OC)C(=O)[C@H](C)C[C@H](C)/C=C/C=C/C=C(\C)C(OCCOC3COC3)C[C@@H]3CC[C@@H](C)[C@@](O)(O3)C(=O)C(=O)N3CCCC[C@H]3C(=O)O2)CC[C@H]1OC(=O)NCCN1CCOCC1 (stereo partly drawn) [I-19, [(42S,44R,46R)-4-[(2R)-2-[(27E,29E,31E,32E,38R,39S,40R,41R,43S,45S,48S,50R,51R,61R)-50,61-dihydroxy-51-methoxy-38,39,40,41,52,53-hexamethyl-47-[2-(oxetan-3-yloxy)ethoxy]-54,55,56,57,58-pentaoxo-75,76-dioxa-64-azatricyclohexatriaconta-27,29,31(52),32(53)-tetraen-48-yl]propyl]-46-methoxy-44-cyclohexyl] N-(2-morpholinoethyl)carbamate] | < 1 | ≥ 1000 | Yes
CO[C@@H]1C[C@H](C[C@@H](C)[C@@H]2CC(=O)[C@H](C)/C=C(\C)[C@@H](O)[C@@H](OC)C(=O)[C@H](C)C[C@H](C)/C=C/C=C/C=C(\C)C(OCC3COCCO3)C[C@@H]3CC[C@@H](C)[C@@](O)(O3)C(=O)C(=O)N3CCCC[C@H]3C(=O)O2)CC[C@H]1OC(=O)N(C)CCN1CCOCC1 (stereo partly drawn) [I-99, [(40S,42R,44R)-4-[(2R)-2-[(27E,29E,31E,32E,36R,37S,38R,39R,41S,43S,45S,46S,47R,48R,58R)-47,58-dihydroxy-45,48-dimethoxy-36,37,38,39,49,50-hexamethyl-51,52,53,54,55-pentaoxo-71,72-dioxa-60-azatricyclohexatriaconta-27,29,31(49),32(50)-tetraen-46-yl]propyl]-44-methoxy-42-cyclohexyl]N-methyl-N-(2-morpholinoethyl)carbamate] | 1 to 10 | ≥ 1000 | Yes
CO[C@@H]1C[C@H](C[C@@H](C)[C@@H]2CC(=O)[C@H](C)/C=C(\C)[C@@H](O)[C@@H](OC)C(=O)[C@H](C)C[C@H](C)/C=C/C=C/C=C(\C)[C@H](OCCOC3COC3)C[C@@H]3CC[C@@H](C)[C@@](O)(O3)C(=O)C(=O)N3CCCC[C@H]3C(=O)O2)CC[C@H]1OCCCN1CCOCC1 [I-13, (27E,29E,31E,32E,39R,40S,41R,42R,44S,46S,48R,49S,51R,52R,61R)-51,61-dihydroxy-52-methoxy-49-[(1R)-2-[(1S,3R,4R)-3-methoxy-4-(3-morpholinopropoxy)cyclohexyl]-1-methyl-ethyl]-39,40,41,42,53,54-hexamethyl-48-[2-(oxetan-3-yloxy)ethoxy]-73,74-dioxa-63-azatricyclohexatriaconta-27,29,31(53),32(54)-tetraene-55,56,57,58,59-pentone] | 1 to 10 | ≥ 1000 | Yes

More lines, main results first:

IC50 [1] [nM] | IC50 [2] [nM] | Compound | mTORC1 selective @ 90 min (mTORC1 over mTORC2)
1 to 10 | ≥ 1000 | CO[C@@H]1/C(C)=C/[C@@H](C)C(=O)C[C@@H]([C@H](C)C[C@@H]2CC[C@@H](OC)[C@H](OC)C2)OC(=O)[C@@H]2CCCCN2C(=O)C(=O)[C@]2(O)O[C@@H](CC[C@H]2C)CC(OCCOC2COC2)/C(C)=C/C=C/C=C/[C@@H](C)C[C@@H](C)C(=O)[C@@H]1OC (stereo partly drawn) [I-50, (25E,27E,29E,30E,34R,35S,36R,37R,39S,41S,44S,46R,47R,56R)-44-[(1R)-2-[(1S,3R,4R)-3,4-dimethoxycyclohexyl]-1-methyl-ethyl]-56-hydroxy-46,47-dimethoxy-34,35,36,37,48,49-hexamethyl-43-[2-(oxetan-3-yloxy)ethoxy]-65,66-dioxa-57-azatricyclohexatriaconta-25,27,29(48),30(49)-tetraene-50,51,52,53,54-pentone] | Yes
1 to 10 | ≥ 1000 | CO[C@@H]1C[C@H](C[C@@H](C)[C@@H]2CC(=O)[C@H](C)/C=C(\C)[C@@H](O)[C@@H](OC)C(=O)[C@H](C)C[C@H](C)/C=C/C=C/C=C(\C)[C@@H](OCCOC3COC3)C[C@@H]3CC[C@@H](C)[C@@](O)(O3)C(=O)C(=O)N3CCCC[C@H]3C(=O)O2)CC[C@H]1OC(F)F [I-105, (23E,25E,27E,28E,32R,33S,34R,35R,37S,39S,41S,42S,44R,45R,55R)-42-[(1R)-2-[(1S,3R,4R)-4-(difluoromethoxy)-3-methoxy-cyclohexyl]-1-methyl-ethyl]-44,55-dihydroxy-45-methoxy-32,33,34,35,46,47-hexamethyl-41-[2-(oxetan-3-yloxy)ethoxy]-65,66-dioxa-56-azatricyclohexatriaconta-23,25,27(46),28(47)-tetraene-48,49,50,51,52-pentone] | Yes
1 to 10 | ≥ 1000 | COCCOCCO[C@@H]1C[C@@H]2CC[C@@H](C)[C@@](O)(O2)C(=O)C(=O)N2CCCC[C@H]2C(=O)O[C@H]([C@H](C)C[C@@H]2CC[C@@H](O)[C@H](OC)C2)CC(=O)[C@H](C)/C=C(\C)[C@@H](OC)[C@@H](OC)C(=O)[C@H](C)C[C@H](C)/C=C/C=C/C=C/1C [I-48, (23E,25E,27E,28E,34R,35S,36R,37R,39S,41S,43R,44S,45R,46R,55R)-55-hydroxy-44-[(1R)-2-[(1S,3R,4R)-4-hydroxy-3-methoxy-cyclohexyl]-1-methyl-ethyl]-45,46-dimethoxy-43-[2-(2-methoxyethoxy)ethoxy]-34,35,36,37,47,48-hexamethyl-64,65-dioxa-56-azatricyclohexatriaconta-23,25,27(47),28(48)-tetraene-49,50,51,52,53-pentone] | Yes
1 to 10 | ≥ 1000 | CO[C@@H]1/C(C)=C/[C@@H](C)C(=O)C[C@@H]([C@H](C)C[C@@H]2CC[C@@H](OCCCO)[C@H](OC)C2)OC(=O)[C@@H]2CCCCN2C(=O)C(=O)[C@]2(O)O[C@@H](CC[C@H]2C)C[C@@H](OCCOC2COC2)/C(C)=C/C=C/C=C/[C@@H](C)C[C@@H](C)C(=O)[C@@H]1OC [I-44, (23E,25E,27E,28E,35R,36S,37R,38R,40S,42S,44R,45S,47R,48R,57R)-47,57-dihydroxy-45-[(1R)-2-[(1S,3R,4R)-4-(3-hydroxypropoxy)-3-methoxy-cyclohexyl]-1-methyl-ethyl]-48-methoxy-35,36,37,38,49,50-hexamethyl-44-[2-(oxetan-3-yloxy)ethoxy]-68,69-dioxa-58-azatricyclohexatriaconta-23,25,27(49),28(50)-tetraene-51,52,53,54,55-pentone] | Yes
1 to 10 | ≥ 1000 | COCCOCCO[C@@H]1C[C@@H]2CC[C@@H](C)[C@@](O)(O2)C(=O)C(=O)N2CCCC[C@H]2C(=O)O[C@H]([C@H](C)C[C@@H]2CC[C@@H](OP(C)(C)=O)[C@H](OC)C2)CC(=O)[C@H](C)/C=C(\C)[C@@H](OC)[C@@H](OC)C(=O)[C@H](C)C[C@H](C)/C=C/C=C/C=C/1C [I-33, (25E,27E,29E,30E,36R,37S,38R,39R,41S,43S,45R,46S,47R,48R,57R)-46-[(1R)-2-[(1S,3R,4R)-4-dimethylphosphoryloxy-3-methoxy-cyclohexyl]-1-methyl-ethyl]-57-hydroxy-47,48-dimethoxy-45-[2-(2-methoxyethoxy)ethoxy]-36,37,38,39,49,50-hexamethyl-66,67-dioxa-58-azatricyclohexatriaconta-25,27,29(49),30(50)-tetraene-51,52,53,54,55-pentone] | Yes
